What was measured:
[1] = molecular target: 11β-HSD1 Reductase (Rattus norvegicus, UniProt P16232); assay: Inhibition of 11β-HSD1 reductase activity (Table 1); conditions: inhibition class in words
[2] = molecular target: T1, 11β-HSD2 Dehydrogenase (Ovis aries, UniProt P50168); assay: Inhibition of 11β-HSD2 dehydrogenase activity (Table 1); type: biochemical, sheep; conditions: inhibition class in words
T1 construct: using 50 nM corticosterone substrate concentration and sheep kidney microsomes; from tissue; host or cells: sheep kidney microsomes
T1 sequence (P50168 1-427): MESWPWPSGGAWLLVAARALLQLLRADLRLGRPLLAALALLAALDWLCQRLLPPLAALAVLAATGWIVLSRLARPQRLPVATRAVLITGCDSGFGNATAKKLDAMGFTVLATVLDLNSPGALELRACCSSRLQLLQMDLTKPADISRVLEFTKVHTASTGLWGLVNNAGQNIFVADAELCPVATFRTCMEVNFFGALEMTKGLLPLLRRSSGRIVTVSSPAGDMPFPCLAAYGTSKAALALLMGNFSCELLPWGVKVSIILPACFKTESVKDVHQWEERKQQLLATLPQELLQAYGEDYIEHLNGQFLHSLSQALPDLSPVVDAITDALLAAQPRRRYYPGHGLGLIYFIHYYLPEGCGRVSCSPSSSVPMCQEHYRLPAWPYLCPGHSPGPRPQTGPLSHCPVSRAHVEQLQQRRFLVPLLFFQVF

[3] = molecular target: 11β-HSD1 Dehydrogenase (Rattus norvegicus, UniProt P16232); assay: Inhibition of 11β-HSD1 dehydrogenase activity (Table 1); type: biochemical; conditions: inhibition class in words
[4] = system: rat aortic rings; conditions: aortic rings incubated with corticosterone; previously demonstrated; cited from earlier work

Sequence of 11β-HSD1 Dehydrogenase (P16232 whole entry): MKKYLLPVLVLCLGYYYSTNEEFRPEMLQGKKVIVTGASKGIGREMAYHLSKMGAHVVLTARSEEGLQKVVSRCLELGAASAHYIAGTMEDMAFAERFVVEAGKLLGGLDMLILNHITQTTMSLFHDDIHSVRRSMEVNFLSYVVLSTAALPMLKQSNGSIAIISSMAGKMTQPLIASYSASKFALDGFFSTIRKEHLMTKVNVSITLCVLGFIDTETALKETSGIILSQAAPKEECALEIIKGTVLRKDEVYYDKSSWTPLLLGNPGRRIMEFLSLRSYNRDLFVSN
Sequence of 11β-HSD1 Reductase (P16232 whole entry): as above

Compound: chenodeoxycholic acid
- 11β-HSD1 Reductase [1]: No Inhibition
- 11β-HSD2 Dehydrogenase [2]: No Inhibition
- 11β-HSD1 Dehydrogenase [3]: Selective inhibitor

Compound: C[C@]12C[C@H](O)[C@H]3[C@@H](CCC4=CC(=O)CC[C@@]43C)[C@@H]1CC[C@@H]2C(=O)CO [corticosterone]
- effect of the steroid on contractile responses to graded phenylephrine compared to controls [4]: amplified contractile responses

Compound: C[C@]12CC[C@H](O)C[C@@H]1CC[C@@H]1[C@@H]2[C@@H](O)C[C@]2(C=O)[C@@H](C(=O)CO)CC[C@@H]12 [3α,5α-reduced aldosterone]
- 11β-HSD1 Reductase [1]: No Inhibition
- 11β-HSD2 Dehydrogenase [2]: Potent Inhibitor
- 11β-HSD1 Dehydrogenase [3]: Moderate Inhibitor

Compound: C[C@]12CC(=O)[C@H]3[C@@H](CCC4=CC(=O)CC[C@@]43C)[C@@H]1CC[C@@H]2O [11-Keto-testosterone]
- 11β-HSD1 Reductase [1]: Selective Inhibitor
- 11β-HSD2 Dehydrogenase [2]: No Inhibition
- 11β-HSD1 Dehydrogenase [3]: No Inhibition

Compound: C[C@]12C[C@H](O)[C@@H]3[C@@H](CCC4=CC(=O)CC[C@@]43C)[C@H]1CC[C@@H]2O [11β-OH-testosterone]
- 11β-HSD1 Reductase [1]: No Inhibition
- 11β-HSD2 Dehydrogenase [2]: Inhibitor (Non-Selective)
- 11β-HSD1 Dehydrogenase [3]: Inhibitor (Non-Selective)

Compound: CC(=O)[C@H]1CC[C@@H]2[C@@H]3CCC4=CC(=O)CC[C@]4(C)[C@@H]3C(=O)C[C@]12C [11-Keto-progesterone]
- 11β-HSD1 Reductase [1]: Selective Inhibitor
- 11β-HSD2 Dehydrogenase [2]: Potent Inhibitor
- 11β-HSD1 Dehydrogenase [3]: No Inhibition

Compound: C[C@]12CCC(=O)C=C1CC[C@@H]1[C@H]2C(=O)C[C@]2(C)C(=O)CC[C@H]12 (stereo in doubt) [11-Keto-androstenedione]
- 11β-HSD1 Reductase [1]: Selective Inhibitor
- 11β-HSD2 Dehydrogenase [2]: No Inhibition
- 11β-HSD1 Dehydrogenase [3]: No Inhibition

Compound: CC(=O)[C@H]1CC[C@H]2[C@@H]3CC[C@H]4C[C@@H](O)CC[C@]4(C)[C@H]3[C@@H](O)C[C@]12C [3α,5α-reduced-11β-OH-progesterone]
- 11β-HSD1 Reductase [1]: No Inhibition
- 11β-HSD2 Dehydrogenase [2]: Potent Inhibitor (Non-Selective)
- 11β-HSD1 Dehydrogenase [3]: Potent Inhibitor (Non-Selective)

Compound: C[C@]12CC[C@H](O)C[C@@H]1CC[C@H]1[C@@H]3CC[C@H](C(=O)CO)[C@@]3(C)CC(=O)[C@@H]12 [3α,5α-tetrahydro-11-dehydro-corticosterone]
- 11β-HSD1 Reductase [1]: Potent Inhibitor
- 11β-HSD2 Dehydrogenase [2]: Potent Inhibitor
- 11β-HSD1 Dehydrogenase [3]: No Inhibition

Compound: C[C@]12CC[C@H](O)C[C@@H]1CC[C@H]1[C@@H]3CC[C@H](O)[C@@]3(C)CC(=O)[C@@H]12 [3α,5α-reduced-11-keto-testosterone]
- 11β-HSD1 Reductase [1]: Selective Inhibitor
- 11β-HSD1 Dehydrogenase [3]: No Inhibition

Compound: C[C@]12CC[C@H](O)C[C@H]1CC[C@@H]1[C@H]2[C@@H](O)C[C@@]2(C)[C@@H]1CC[C@@H]2O [3α,5β-reduced-11β-OH-testosterone]
- 11β-HSD1 Reductase [1]: No Inhibition
- 11β-HSD2 Dehydrogenase [2]: No Inhibition
- 11β-HSD1 Dehydrogenase [3]: Moderate Inhibitor

Compound: C[C@]12CCC(=O)C[C@@H]1CC[C@@H]1[C@@H]2[C@@H](O)C[C@]2(C)[C@@H](C(=O)CO)CC[C@@H]12 [5α-dihydro-corticosterone]
- 11β-HSD1 Reductase [1]: No inhibition
- 11β-HSD2 Dehydrogenase [2]: Potent Inhibitor
- 11β-HSD1 Dehydrogenase [3]: Potent Inhibitor

Compound: C[C@]12CC[C@H](O)C[C@@H]1CC[C@@H]1[C@@H]2C(=O)C[C@]2(C)C(=O)CC[C@@H]12 [3α,5α-reduced-11-keto-androstenedione]
- 11β-HSD1 Reductase [1]: Selective Inhibitor
- 11β-HSD1 Dehydrogenase [3]: No Inhibition

Compound: CC(=O)[C@H]1CC[C@@H]2[C@@H]3CC[C@@H]4C[C@@H](O)CC[C@]4(C)[C@@H]3[C@@H](O)C[C@]12C [3α,5β-reduced-11β-OH-progesterone]
- 11β-HSD1 Reductase [1]: No Inhibition
- 11β-HSD2 Dehydrogenase [2]: No Inhibition
- 11β-HSD1 Dehydrogenase [3]: Moderate Inhibitor

Compound: CC(=O)[C@H]1CC[C@@H]2[C@@H]3CCC4=CC(=O)CC[C@]4(C)[C@@H]3[C@@H](O)C[C@]12C [11β-OH-progesterone]
- 11β-HSD1 Reductase [1]: No Inhibition
- 11β-HSD1 Dehydrogenase [3]: Potent Inhibitor (Non-Selective)

Compound: C[C@]12CC[C@H](O)C[C@@H]1CC[C@@H]1[C@@H]2[C@@H](O)C[C@]2(C)[C@@H](C(=O)CO)CC[C@@H]12 [3α,5α-reduced-corticosterone]
- 11β-HSD1 Reductase [1]: No Inhibition
- 11β-HSD2 Dehydrogenase [2]: Potent Inhibitor
- 11β-HSD1 Dehydrogenase [3]: Potent Inhibitor

Compound: C[C@]12CC[C@H](O)C[C@H]1CC[C@@H]1[C@H]2[C@@H](O)C[C@]2(C)C(=O)CC[C@H]12 [3α,5α-reduced-11β-OH-androstenedione]
- 11β-HSD1 Reductase [1]: No Inhibition
- 11β-HSD2 Dehydrogenase [2]: Potent Inhibitor (Non-Selective)
- 11β-HSD1 Dehydrogenase [3]: Moderate Inhibitor

Compound: C[C@]12CC[C@H](O)C[C@@H]1CC[C@@H]1[C@@H]2[C@@H](O)C[C@]2(C)[C@@H](O)CC[C@@H]12 [3α,5α-reduced-11β-OH-testosterone]
- 11β-HSD1 Reductase [1]: No Inhibition
- 11β-HSD2 Dehydrogenase [2]: Potent Inhibitor (Non-Selective)
- 11β-HSD1 Dehydrogenase [3]: Potent Inhibitor (Non-Selective)
